Publication PMC12447631 (Environmental science & technology, 2018)

Molecular target: T1, MGS0156 (uncultured organism, UniProt A0A0G3FEJ8)
T1 sequence (A0A0G3FEJ8 75-421): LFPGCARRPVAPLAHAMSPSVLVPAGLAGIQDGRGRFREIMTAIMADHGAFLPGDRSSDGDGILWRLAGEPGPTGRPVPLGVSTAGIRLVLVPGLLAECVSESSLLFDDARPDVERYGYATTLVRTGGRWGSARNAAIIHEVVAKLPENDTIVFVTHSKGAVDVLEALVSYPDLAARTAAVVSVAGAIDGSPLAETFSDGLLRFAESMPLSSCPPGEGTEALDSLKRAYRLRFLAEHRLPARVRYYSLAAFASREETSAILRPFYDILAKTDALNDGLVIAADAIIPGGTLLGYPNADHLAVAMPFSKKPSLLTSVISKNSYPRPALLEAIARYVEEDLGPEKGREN
Experiment: spectrophotometric pNP ester hydrolysis
Format: biochemical
Conditions: 0.5 mM substrate, 50 mM HEPES-K pH 8.0, 30 °C

With `CCCCCCCC(=O)Oc1ccc([N+](=O)[O-])cc1` [pNP-octanoate] the specific activity was “MGS0156 was most active against pNP -octanoate and pNP -decanoate (C8–C10 substrates)”.
